Experimental data: US20050227982A1, “Antileishmanial dinitroaniline sulfanomides with activity against parasite tubulin” (priority 2002, published 2005)
Where “and” joins values, the source holds several entries; their conditions need not be identical. Equal entries are not always repeated. Where two headings read alike, the source gives them in different places.

Tests used:
leishmanial tubulin [1] = conditions: reference 8; cited from earlier work
[2] = system: T. b. brucei Lab 110 EATRO; experiment: In vitro sensitivity of T. b. brucei Lab 110 EATRO (Coulter counter, two-day); format: cell-based, Trypanosoma brucei brucei; conditions: read-out: IC50, T. b. brucei Lab 110 EATRO
Experimental: (§1) Determination of the drug susceptibility of parasites and mammalian cells. The susceptibility of Leishmania donovani amastigote-like parasites (WHO designation: MHOM/SD/62/1S-CL2D) to growth inhibition by compounds of interest was measured in a three-day assay using the tetrazolium dye-based CellTiter reagent (Promega) (Werbovetz, K., Brendle, J., and Sackett, D. (1999) Mol. Biochem. Parasitol. 98, 53-65., and Havens, C., Bryant, N., Asher, L., Lamoreaux, L., Perfetto, S., Brendle, J., and Werbovetz, K. (2000) Mol. Biochem. Parasitol. 110, 223-236). The amastigote medium used in this assay is based on the medium mentioned by Joshi et al. (Joshi, M., Dwyer, D. M., and Nakhasi, H. L. (1993) Mol. Biochem. Parasitol. 58, 345-354). Prior to addition of fetal bovine serum to a final concentration of 20%, this amastigote medium contains 15 mM KCl, 115 mM KH2PO4, 10 mM K2HPO4, 0.5 mM MgSO4, 24 mM NaHCO3, a 1-concentration of RPMI-1640 vitamins and amino acids, 2.0 mM L-glutamine, 22 mM D-glucose, 100 units/mL penicillin, 100 ∝g/ml streptomycin, 0.1 mM adenosine, 1 ∝g/mL folate, and 25 mM MES (pH 5.5). Compounds were tested for their activity against bloodstream-form Trypanosoma brucei brucei (MITat 1.2, variant 221) axenically-cultured in HMI-9 medium , H., and Hirumi, K. (1989) J. Parasitol. 75, 985-989.) following the procedure of Ellis et al. (Ellis, J., Fish, W., Sileghem, M., and McOdimba, F. (1993) Vet. Parasitol. 50, 143-149.) with some modifications. Briefly, 100 μL of late log phase parasites were incubated in 96-well plates (Costar) at an initial concentration of 10^5 cells/ml with or without test compounds at 37° C. in a humidified 5% CO2 atmosphere for 72 hours. Twenty-five μL of a 5 mg/mL solution of MTT (prepared in phosphate buffered saline and filter sterilized) was then added to each well and plates were re-incubated at 37° C. as before for 2 h. One hundred ∝L of 20% SDS lysis buffer (prepared in 50% aqueous DMF) was added to each well and plates were incubated as before for an additional 3-4 h. Optical densities were then measured at 570 nm using SpectraMax Plus microplate reader. […] Assessment of the in vitro sensitivity of T. b. brucei Lab 110 EATRO and P. falciparum strains to compounds was performed by methods described in Donkor et al. (Donkor, I., Assefa, H., Rattendi, D., Lane, S., Vargas, M., Goldberg, B., and Bacchi, C. (2001) Eur. J. Med. Chem. 36, 531-538.) and Guan et al. (Guan, J., Kyle, D., Gerena, L., Zhang, Q., Milhous, W., and Lin, A. (2002) J. Med. Chem. 45, 2741-2748).

PC3 cells = experiment: Toxicity to PC3 cells (three-day CellTiter assay); format: cell-based; conditions: read-out: IC50, PC3 prostate
Experimental: (§2) The toxicity of compounds to J774 murine macrophages and PC3 […] cells was measured in a three-day assay using the CellTiter reagent. […] Macrophages were allowed to adhere for 24 hours, then the medium was removed and replaced with serial dilutions of the test compounds in the DMEM medium mentioned above without phenol red. After 72 hr incubation with the test compounds at 37° C. in a humidified 5% CO2 incubator, cell viability was determined using the CellTiter reagent by adding 20 μL of assay solution to each well. After a 6-7 h incubation at 37° C. to allow for color development, the absorbance of each well at 490 nm was measured in a SpectraMax Pro microplate reader (Molecular Devices). The toxicity of compounds to PC3 cells was assessed in the same manner as for the macrophages, except that the medium used was RPMI 1640 supplemented with 10% heat inactivated fetal calf serum, 2.0 mM L-glutamine, 50 units/mL penicillin, and 50 ∝g/mL streptomycin. IC50 values for the J774 and PC3 assays were determined with the software program SoftMax Pro as described earlier.

P. falciparum W2 strain = experiment: microbe, parasite or virus in culture; format: cell-based, Plasmodium falciparum
Experimental: as §1

leishmanial tubulin [3] = format: biochemical; conditions: mean ± SD of at least one duplicate measurement, SD of controls 27.6%
Experimental: (§3) 2000, 110, 223-236, incorporated herein by reference.^14
Briefly, the tubulin assembly assays are performed as follows. […] The change in turbidity was measured at 351 nm using the SpectraMax Plus microplate reader immediately after GTP addition at 30° C. (for leishmanial tubulin) or 37° C. (for brain tubulin).

[4] = system: Trypanosoma brucei brucei (MITat 1.2, variant 221); experiment: microbe, parasite or virus in culture; format: cell-based; conditions: read-out: IC50, T. b. brucei variant 221
Experimental: as §1

[5] = system: L. donovani promastigotes; experiment: Flow cytometry of DNA content in L. donovani promastigotes; format: cell-based, Leishmania donovani; conditions: 10 μM compound; for effect on cell cycle / DNA content by flow cytometry: 48 hour treatment of promastigotes
Experimental: Flow cytometry and fluorescence cell sorting. Parasites or J774 macrophages were incubated in T25 flasks (3-5 mL final volume) in the appropriate media described earlier for 24-48 h. Cultures contained 1% DMSO (v/v) in the presence or absence of test compounds. Cells were counted using a hemacytometer, then were centrifuged (1000×·g for parasites, 200×·g for macrophages) at 4° C. for 10 min (parasites) or 5 min (macrophages). Cells were resuspended in 150 μL of PBS (0.01 M phosphate, 0.137 M NaCl, and 2.7 mM KCl), then 350 μL of ice-cold methanol was added and the samples were fixed at −20° C. for 2-3 h. Cells were centrifuged as before and resuspended in PBS containing 0.1% TX-100, 5 μg/mL RNase A, and 10 μg/mL propidium iodide for 20-30 min. Centrifugation was repeated, then cells were resuspended in PBS to a final concentration of 5×10^5-10^6/mL and stored at 4° C. until analysis. Fluorescence cell sorting was conducted on a Beckman Coulter Elite flow cytometer.

[6] = system: L. donovani axenic amastigotes; experiment: Growth inhibition of L. donovani axenic amastigotes (three-day tetrazolium dye assay); format: cell-based, Leishmania donovani
Experimental: as §3, §1

[7] = system: L. donovani promastigotes; experiment: Growth inhibition of L. donovani promastigotes; format: cell-based, Leishmania donovani; conditions: for IC50: read-out: IC50 vs. L. donovani promastigotes
P. falciparum D6 strain = experiment: In vitro sensitivity of P. falciparum D6 strain (tritiated hypoxanthine uptake); format: cell-based, Plasmodium falciparum
Experimental: as §1

J774 murine macrophages = experiment: Toxicity to J774 macrophages (three-day CellTiter assay); format: cell-based
Experimental: as §2

[8] = literature reference 4; cited from earlier work
[9] = Plasmodium falciparum, W2, read-out: IC50, P. falciparum W2 strain
[10] = Trypanosoma brucei, 72 h, Table 4, three-day tetrazolium dye assay
[11] = Leishmania donovani, 72 h, Table 4, three-day tetrazolium dye assay, mean ± SD, read-out: IC50, L. donovani axenic amastigotes
[12] = Leishmania donovani, Table 1, mean ± standard deviation of at least two independent measurements, read-out: IC50 vs. L. donovani amastigotes
[13] = Plasmodium falciparum, D6, read-out: IC50, P. falciparum D6 strain
[14] = Mus musculus, J774, Table 4, mean ± SD of at least two independent experiments, read-out: IC50, J774 macrophages
[15] = read-out: IC50, J774 macrophages

Row | SMILES | IC50 ([2]; Trypanosoma brucei, 48 h) [µM] | IC50 (PC3 cells; Homo sapiens, PC-3, 72 h) [µM] | IC50 (P. falciparum W2 strain; [9]) [µM] | % Inhibition of Leishmanial Tubulin Assembly at 20 μM Compound (leishmanial tubulin [3]) [%] | IC50 [4, 10] [µM] | effect on cell cycle / DNA content by flow cytometry [5] | IC50 [6, 11] [µM] | IC50 [6, 12] [µM] | IC50 ([7]; Leishmania donovani) [µM] | IC50 (P. falciparum D6 strain; [13]) [µM] | IC50 (J774 murine macrophages; [14]) [µM] | IC50 (J774 murine macrophages; [15]) [µM] | further results
1 | O=[N+]([O-])c1cc(C(F)(F)F)cc([N+](=O)[O-])c1Cl [Chloralin, chloralin] | – | – | – | – | – | – | – | – | – | – | – | – | inhibition of leishmanial tubulin polymerization (in words, earlier publication) (leishmanial tubulin [1]): inhibitor of leishmanial tubulin polymerization
2 | CCCCN(CCCC)c1c([N+](=O)[O-])cc(S(N)(=O)=O)cc1[N+](=O)[O-] [Compound 15, 4(dibutylamino)-3,5-dinitrobenzenesulfonamide] | 1.8 | 17.2 ± 2.8 | 4.3 | 89 ± 3 | 2.57 ± 0.7 | accumulate in the G2M phase of the cell cycle | 20.1 ± 0.2 | 20.1 ± 0.2 | 17.8 ± 2.6 | 5.1 | 8.43 ± 0.69 | – | IC50 ([4]; Trypanosoma brucei, unit inferred): 2.57 ± 0.7 µM; IC50 ([6]; Leishmania donovani, 72 h, unit inferred, three-day tetrazolium dye assay, read-out: IC50, L. donovani axenic amastigotes): 20.1 ± 0.2 µM; IC50 (J774 murine macrophages; Mus musculus, J774, table after b111, unit inferred, read-out: IC50, J774 macrophages): 8.43 ± 0.69 µM
3 | CCCCCCN(CCCCCC)c1c([N+](=O)[O-])cc(S(N)(=O)=O)cc1[N+](=O)[O-] [Compound 17] | 5.6 | 11.2 ± 1.3 | 12 | 48 ± 19 | 9.48 ± 1.73 | – | 11.7 ± 0.7 | 11.7 ± 0.7 | 12.2 | 10 | 1.91 ± 0.36 | – | –
4 | CCCN(CCC)c1c([N+](=O)[O-])cc(S(=O)(=O)Nc2ccccc2)cc1[N+](=O)[O-] [Compound 20, N1-Phenyl-3,5-dinitro-N4,N4-di-n-propylsulfonilamide] | 0.58 | 41.3 ± 8.5 | 13 | 108 ± 7 | – | appearance of parasites containing approximately 4×, 8×, and 16× more DNA | – | – | 14.7 ± 1 | 11 | – | 30.8 ± 1.9 | IC50 ([4]; Trypanosoma brucei, 72 h): 0.412 ± 0.044 µM; IC50 ([4]; Trypanosoma brucei): 0.4 µM; parasite cell density over 48 hours ([5]; control cultures doubled approximately three times): remained at the same cell density; fold more active than 3 against L. donovani axenic amastigotes [6]: 13.4 fold; IC50 ([6]; Leishmania donovani, 72 h, read-out: IC50, L. donovani axenic amastigotes): 5.03 ± 1.08 µM; IC50 ([6]; Leishmania donovani, read-out: IC50 vs. L. donovani amastigotes): 5.41 ± 0.89 µM; fold more active than 3 against promastigotes ([7]; relative to oryzalin 3): 3.0 fold; melting point: 120 °C; IC50 (J774 murine macrophages; Mus musculus, J774, read-out: IC50, J774 macrophages): 28.3 ± 3.8 µM
5 | CCCNS(=O)(=O)c1cc([N+](=O)[O-])c(N(CCC)CCC)c([N+](=O)[O-])c1 [Compound 21, N1-Propyl-3,5-dinitro-N4,N4-di-n-propylsulfonilamide] | – | – | – | 97 ± 1 | – | – | – | – | – | – | – | 21.8 ± 2.1 | IC50 ([2]; Coulter counter after two-day incubation): 3 µM; IC50 (PC3 cells; three-day tetrazolium dye assay, mean ± SD): 40.5 ± 8.6 µM; IC50 (P. falciparum W2 strain; tritiated hypoxanthine uptake, read-out: IC50, P. falciparum W2 strain): > 25 µM; IC50 [4]: 9.2 µM and 8.06 µM; IC50 ([6]; read-out: IC50, L. donovani axenic amastigotes): 54.3 µM and 56.9 µM; IC50 ([6]; read-out: IC50 vs. L. donovani amastigotes): 56.9 ± 3.4 µM; IC50 ([7]; mean ± standard deviation of at least two independent measurements): 56 ± 2.3 µM; IC50 (P. falciparum D6 strain; tritiated hypoxanthine uptake, read-out: IC50, P. falciparum D6 strain): 13 µM
6 | CCCN(CCC)c1c([N+](=O)[O-])cc(C(F)(F)F)cc1[N+](=O)[O-] [Trifluralin, trifluralin] | – | – | – | – | – | – | – | – | – | – | – | – | aqueous solubility (in words) [8]: low solubility
